The results in this text go back to patent US20170042148A1, “USE OF A DICARBOXYLIC ACID TO CONTROL THE GROWTH OF HOLOPARASITIC OR HEMIPARASITIC PLANTS” (UNIVERSITE CLAUDE BERNARD LYON I, priority 2014, published 2017).

Each structure is given as a SMILES string.

The test system of experiment [1] is Striga hermontica. Put plainly: Herbicidal effect on Striga hermontica growth in a microtiter plate (procaulome length). The conditions noted are these: for Striga inhibition: 2 mg/mL of buffer, procaulome size after 3 days at 30° C. with GR24. It counts as in vivo. The method, then: The activity of the diacids on the parasitic plants Striga and Orobanche was tested by preparing solutions of the selected diacid in water or in phosphate buffer (50 mM, pH 7) at concentrations of 1 to 20 mg/mL.
1. In a 12-well microtiter plate, filter papers (Whatman 3) are placed at the bottom of the wells and moistened with sterile water. About 30 sterilized seeds (rinsed with 70% ethanol, then 1% (w/v) Ca(ClO)2 and Tween® 20, then thoroughly with water) of the holo- or hemiparasitic plants are placed, in each well, on the surface of the filter papers. After 10 days of incubation at 30° C. and in the dark, increasing amounts of a diacid or of culture supernatant are added, in the presence of a germination stimulant, GR24. After 3 days of incubation at 30° C., the development of the parasitic plants in the presence of a diacid or of culture supernatant is compared to the negative control (water, phosphate buffer or sterile culture medium), with a macroscope coupled to a camera. The length of the procaulomes (radicles) of the holo- or hemiparasitic plants is measured in order to express the phytotoxic capacity of the tested products.

For experiment [2], the system named is Striga hermontica. Put plainly: Emergence of Striga seedlings in soil mesocosms with sorghum. It counts as in vivo. The following applies: soil mesocosm with sorghum, after 2 months. On the procedure:
2. Striga hermontica seeds (about 100 seeds/pot) and sorghum seeds (1 seed/pot) were introduced simultaneously into soil mesocosms, in the presence of increasing amounts of malic acid (2 and 20 g/L) or of culture supernatant, then grown in a greenhouse or a plot. The emergence of Striga seedlings is estimated visually, after 2 months of incubation. Phytotoxic capacity is estimated by comparison with a control without added malic acid or culture supernatant. A decrease of 22% in the number of Striga seedlings having emerged, compared to the control condition, is observed in the presence of 2 g/L malic acid and of 90% in the presence of 20 g/L malic acid. In the presence of the bacterial supernatant, a decrease of 58% in the number of Striga compared to the control condition was observed.

Regarding `O=C(O)CC(O)C(=O)O` (racemic) [DL-Malic acid], the Striga inhibition entry in the experiment on Striga hermontica [1] was “+ (weak inhibition (procaulome size between 0.2 and 0.8 mm))”.

As to `O=C(O)C#CC(=O)O` [Acetylene dicarboxylic acid], the Striga inhibition result in the experiment on Striga hermontica [1] is reported as “++ (strong inhibition (procaulome size < 0.2 mm))”.

Regarding `O=C(O)CCCC(=O)O` [Glutaric acid], the Striga inhibition result in the experiment with Striga hermontica [1] is listed as “++ (strong inhibition (procaulome size < 0.2 mm))”.

Regarding `O=C(O)C[C@H](O)C(=O)O` [L-Malic acid], the Striga inhibition result in the experiment with Striga hermontica [1] is given as “++ (strong inhibition (procaulome size < 0.2 mm))”. Further, the “effect on procaulome growth (FIG. 1)” value in the experiment on Striga hermontica [1] (supernatant of strain grown in Nfb*, L-malic acid 2 mg/mL in phosphate buffer) was “inhibitory effect”.

`O=C(O)/C=C\C(=O)O` [Maleic acid]: in the experiment with Striga hermontica [1], the Striga inhibition entry is “++ (strong inhibition (procaulome size < 0.2 mm))”.

For `O=C(O)CC(=O)O` [Malonic acid], the Striga inhibition entry in the experiment with Striga hermontica [1] is recorded as “++ (strong inhibition (procaulome size < 0.2 mm))”.

Regarding `O=C(O)C(=O)O` [Oxalic acid], the Striga inhibition result with Striga hermontica [1] was “++ (strong inhibition (procaulome size < 0.2 mm))”.

As to `O=C(O)CC(O)C(=O)O` (stereo not shown) [malic acid], the “decrease in the number of Striga seedlings having emerged, compared to the control condition” value is on record as 22% in the experiment on Striga hermontica [2] (2 g/L malic acid) and 90% with Striga hermontica [2] (20 g/L malic acid).
